# Experimental data from patent publication US20100196355A1, “Immunophilin Ligands and Methods for Modulating Immunophilin and Calcium Channel Activity” (Wyeth, priority 2007, published 2010).
# How the values were obtained:
# PPIF = target: T1, PPIF (Homo sapiens, UniProt P30405); test: Size exclusion binding of [14C]-1 to purified recombinant protein; details: 10 μM
# T1 construct: His6 (N); made in house
# Description: (§1) Using Gateway cloning methods developed by Invitrogen (Carlsbad, Calif.), cacnb1/CACNB 1, cacnb4/CACNB4fkbp3/FKBP25, fkbp4/FKBP52, ppid, ppif and fkbp8/FKBP38 genes were cloned into the pDEST17 (N-His6 tag) vector. The His6-CACNB1: TGG548TAA were generated from pDEST17-CACNB1 using QuikChange site-directed mutagenesis kit (Stratagene, LaJolla, Calif.). The His6 tagged protein was purified on a Ni-NTA column (Qiagen, Valencia, Calif.).
# FKBP38/Ca2+/CaM = target: T2, FKBP38/Ca2+/CaM (Homo sapiens, UniProt Q14318); test: as above; details: 10 μM; 2 mM Ca2+ and 5 μM CaM
# T2 construct: His6 (N); made in house
# T2 sequence (Q14318 whole entry): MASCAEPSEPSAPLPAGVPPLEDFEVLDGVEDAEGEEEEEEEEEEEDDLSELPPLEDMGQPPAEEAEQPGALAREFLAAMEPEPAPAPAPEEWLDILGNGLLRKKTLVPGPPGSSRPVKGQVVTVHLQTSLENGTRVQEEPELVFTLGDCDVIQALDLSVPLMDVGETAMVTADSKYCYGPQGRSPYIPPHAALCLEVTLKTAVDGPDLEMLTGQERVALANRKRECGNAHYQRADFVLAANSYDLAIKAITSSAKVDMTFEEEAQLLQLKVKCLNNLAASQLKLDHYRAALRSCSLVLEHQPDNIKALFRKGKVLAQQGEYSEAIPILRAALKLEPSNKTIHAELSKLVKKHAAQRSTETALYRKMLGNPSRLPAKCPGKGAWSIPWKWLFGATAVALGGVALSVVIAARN
# Description: as §1
# His6-CACNB1:TGG548TAA = target: T3, His6-CACNB1:TGG548TAA (Homo sapiens, UniProt Q02641); test: as above; details: 10 μM
# T3 construct: His6 (N); made in house
# T3 sequence (Q02641 1-547 limits assumed): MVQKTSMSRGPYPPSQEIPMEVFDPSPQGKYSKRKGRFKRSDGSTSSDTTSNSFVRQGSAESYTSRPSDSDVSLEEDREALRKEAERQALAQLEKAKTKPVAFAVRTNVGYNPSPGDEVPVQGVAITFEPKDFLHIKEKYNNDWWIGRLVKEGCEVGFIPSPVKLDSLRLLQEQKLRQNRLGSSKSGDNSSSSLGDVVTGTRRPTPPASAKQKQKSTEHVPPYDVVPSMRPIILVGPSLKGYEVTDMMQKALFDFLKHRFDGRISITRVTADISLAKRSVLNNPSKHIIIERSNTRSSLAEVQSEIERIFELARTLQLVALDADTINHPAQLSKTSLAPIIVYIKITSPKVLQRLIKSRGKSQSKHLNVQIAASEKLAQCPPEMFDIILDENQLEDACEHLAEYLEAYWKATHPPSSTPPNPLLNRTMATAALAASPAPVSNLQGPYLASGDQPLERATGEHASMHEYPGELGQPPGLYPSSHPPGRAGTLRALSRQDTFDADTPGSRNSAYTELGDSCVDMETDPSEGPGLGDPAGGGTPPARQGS
# Description: as §1
# PPID = target: T4, PPID (Homo sapiens, UniProt Q08752); test: as above; details: 10 μM
# T4 construct: His6 (N); made in house
# T4 sequence (Q08752 whole entry): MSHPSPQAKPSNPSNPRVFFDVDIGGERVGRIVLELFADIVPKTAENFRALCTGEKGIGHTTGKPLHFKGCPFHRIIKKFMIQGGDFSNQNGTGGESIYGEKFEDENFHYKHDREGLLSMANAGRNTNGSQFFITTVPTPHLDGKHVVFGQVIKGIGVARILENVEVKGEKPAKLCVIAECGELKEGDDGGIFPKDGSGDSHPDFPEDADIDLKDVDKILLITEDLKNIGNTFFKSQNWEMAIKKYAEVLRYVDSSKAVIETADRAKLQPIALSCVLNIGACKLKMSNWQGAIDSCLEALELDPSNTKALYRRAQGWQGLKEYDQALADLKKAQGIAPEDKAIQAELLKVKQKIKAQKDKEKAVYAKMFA
# Description: as §1
# CACNB4 = target: T5, CACNB4 (Homo sapiens, UniProt O00305); test: as above; details: 10 μM
# T5 construct: His6 (N); made in house
# Description: as §1
# FKBPs = test: as above; parameters: species or system human; details: 10 μM
# Description: as §1
# cortical neurons = test: Neurite outgrowth in cortical neurons; format: cell-based, rat; details: siRNA-transfected rat cortical neurons, 24 h; control lamin A/C siRNA
# Description: Cortical neurons were fixed using 2% paraformaldehyde for 5 min followed by 4% paraformaldehyde for 5 min. Cells were incubated in blocking solution (0.2% Triton-X+1.5% normal goat serum in PBS) followed by primary (anti-neuronal class III β-tubulin (TUJ1) (Covance Innovative Antibodies, Berkeley, Calif.) and secondary antibody (Alexa Fluor 488 goat anti-mouse) (Molecular Probes, Carlsbad, Calif.). Each step was performed at room temperature for 1 hr. Total neurite outgrowth for each condition was analyzed using the Neuronal Profiling Bioapplication on an ArrayScan HCS Reader (Cellomics, Pittsburgh, Pa.).
# (§2) Briefly, cortical neuron cultures were prepared from embryonic day 15 (E15) rat embryos (Sprague-Dawley, Charles River Laboratories, Wilmington, Mass.). The embryos were collected, their brains were removed, and the cortices were dissected out in ice-cold phosphate-buffered saline (PBS) without Ca^2+ and Mg^2+. Dissected pieces of cortical tissue were pooled together and transferred to an enzymatic dissociation media containing 20 IU/ml papain in Earle's balanced salt solution (Worthington Biochemical, Freehold, N.J.) and incubated for 30 min at 37° C. After enzymatic dissociation, the papain solution was aspirated and the tissue mechanically triturated with a fire-polished Pasteur pipette in complete media [Neurobasal Medium with B-27 supplement (Gibco, Grand Island, N.Y.), 100 IU/ml penicillin, 100 μg/ml streptomycin, 3.3 μg/ml aphidicolin, 0.5 mM glutamate] containing 2,000 IU/ml DNase and 10-mg/ml ovomucoid protease inhibitor.
# [1] = system: cultured rat cortical neurons; test: Neuronal survival assay (neurofilament ELISA); format: cell-based; details: siRNA-transfected rat cortical neurons; neurofilament ELISA
# Description: Cultures were fixed for 30 min with 4% paraformaldehyde at 37° C. Nonspecific binding was blocked by incubating with PBS containing 0.3% Triton X-100 and 5% fetal bovine serum (FBS) for 45 min. Cultures were then incubated overnight at 4° C. with an anti-neurofilament (200 kD) monoclonal antibody (1:1000, clone RT-97, Chemicon, Temecula, Calif.). After washing, a peroxidase-conjugated secondary antibody (1:1000, Vector Labs, Burlingame, Calif.) was applied for 2 h. After three washes, the peroxidase substrate K-BlueMax (Neogen, Lexington, Ky.; Young et al., 1999) was added to the cultures and incubated for 10 min on an orbital shaker. The peroxidase substrate is highly soluble in the K-BlueMax solution. Optical density is then readily measured using a Molecular Devices Spectramax Plus colorimetric plate reader at 650
# as §2
# His6-tagged FKBP52 = target: T6, His6-tagged FKBP52 (Homo sapiens, UniProt Q02790); test: [3H]-FK506 binding on Ni-chelated FLASH plate; details: read-out: FKBP 52 (Kd)
# T6 construct: made in house
# T6 sequence (Q02790 1-459): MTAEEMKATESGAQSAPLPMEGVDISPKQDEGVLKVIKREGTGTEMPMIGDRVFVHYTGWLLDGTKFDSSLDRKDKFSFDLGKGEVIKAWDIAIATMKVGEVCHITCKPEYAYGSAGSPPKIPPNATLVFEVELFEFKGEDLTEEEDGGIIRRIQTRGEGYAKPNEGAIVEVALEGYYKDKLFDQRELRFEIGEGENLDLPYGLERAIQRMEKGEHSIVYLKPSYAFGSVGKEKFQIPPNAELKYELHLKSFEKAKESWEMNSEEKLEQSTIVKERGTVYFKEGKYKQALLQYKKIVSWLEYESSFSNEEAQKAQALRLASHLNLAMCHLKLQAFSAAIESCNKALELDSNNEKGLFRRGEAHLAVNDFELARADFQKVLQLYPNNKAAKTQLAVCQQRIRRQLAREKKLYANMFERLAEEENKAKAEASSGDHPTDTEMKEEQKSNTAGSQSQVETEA
# Description: (§3) Reactions were carried out in triplicate at 25° C. for 30 min. Kd were calculated using methods described by Carreras (Anal. Biochem. 298, 57-61 (2001)).
# Human CD4+ T cells = test: Immunosuppression assay: IL-2 stimulated CD4+ T-cell proliferation; format: cell-based; details: Homo sapiens, CD4+ T cell
# Description: Human CD4^+ T cells were purified by negative selection from peripheral blood lymphocytes using RosetteSep as per manufacture's instructions (StemCell Technologies, Inc. Vancouver, British Columbia). Tosyl-activated magnetic microspheres (Dynal, Great Neck, N.Y.) were coated with anti-CD3 Ab (1 μg/10^7 microspheres), and anti-CD28Ab ([…]) as described in Blair et al. J. Immunol., 160:12, 1998. […] Protein-coated microspheres were added to purified CD4+T cells (2×10^6cells/mL, ratio 1 bead: 1 cell) and activated for 72 hours in RPMI, 10% fetal calf serum, 2 mM glutamine media. Cells were harvested, washed, and cultured overnight in fresh media and re-stimulated with IL-2 as described in Bennett et al., J. Immunol. 170:711, 2003. […] Seventy-two hours after culture re-stimulation, plates were pulsed with 1 μCi/well tritiated thymidine and incubated for a 6-16 hour period.
# [2] = system: Ca2+ channel in F-11 cells; test: Whole-cell patch clamp recording of Ca2+ currents in F-11 cells; format: cell-based, rat and mouse hybrid; details: 5 μM in the bath for 2 hrs
# Description: The whole-cell configuration of the patch-clamp technique was used to record calcium currents from the cells at room temperature using an EPC-9 amplifier (HEKA, Instrutech Corp.) with the acquisition and analysis program Pulse-PulseFit from HEKA (Lambrecht, Germany). Electrodes were fabricated using a P-87 puller (Sutter Instrument). […] The standard bath recording solution is Ca^2+ and Mg^2+ free HBSS (pH 7.4) containing 10 mM HEPES, 10 mM dextrose, and 4 mM BaCl2. Currents were filtered at 3 kHz, and the inward Ca^2+ currents were recorded from cells held at −90 mV with 10 mV depolarizing steps from −80 mV to 60 mV for 50 ms.
# His6-tagged FKBP12 = His6-tagged FKBP12 (Homo sapiens, UniProt P62942); test: [3H]-FK506 binding on Ni-chelated FLASH plate; details: read-out: FKBP 12 (Kd)
# Chain of His6-tagged FKBP12 (P62942 whole entry): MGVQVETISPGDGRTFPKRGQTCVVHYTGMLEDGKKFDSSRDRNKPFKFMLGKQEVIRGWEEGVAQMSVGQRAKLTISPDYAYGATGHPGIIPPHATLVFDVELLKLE
# Description: as §3
# T1 sequence (P30405 30-207): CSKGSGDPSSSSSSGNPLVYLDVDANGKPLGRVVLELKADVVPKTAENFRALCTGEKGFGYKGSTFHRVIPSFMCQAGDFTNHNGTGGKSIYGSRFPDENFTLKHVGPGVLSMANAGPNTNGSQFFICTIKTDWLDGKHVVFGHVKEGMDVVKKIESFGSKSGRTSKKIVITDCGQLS
compound,measurement,setting,value
"9,27-dihydroxy-3-{2-[4-hydroxy-3-methoxycyclohexyl ]-1-methylethyl}-10,21-dimethoxy-6,8,12,14,20,26-hexamethyl-37-phenyl-4,9,10,12,13,14,15,18,21,22,23,24,25,26,27,32,33,34,34a-nonadecahydro-3H-23,27-epoxy-18,15-(epoxyimino)pyrido[2,1-c][1,4]oxazacyclohentriacontine-1,5,11,28,29(6H, 31H)-pentone [Rapamycin analogue I]",binding of [14C]-1 to PPIF,PPIF,negligibly
same,binding of [14C]-1 to FKBP38/Ca2+/CaM,FKBP38/Ca2+/CaM,negligibly
same,binding of [14C]-Compound 1 to mutant His6-CACNB1:TGG548TAA,His6-CACNB1:TGG548TAA,weakly
same,binding of [14C]-1 to PPID,PPID,weakly
same,binding of [14C]-Compound 1 to CACNB4,CACNB4,negligibly
same,binding of [14C]-1 to FKBPs,FKBPs,well
"FKBP52 siRNA: siRNA, sense CCUAGCUAUGCUUUUGGCATT (SEQ ID NO:17), antisense UGCCAAAGCAUAGCUAGGTT (SEQ ID NO:18) (chemistry not given here)",total neurite outgrowth compared to control,cortical neurons,125±12 % of control
same,percent neuronal survival compared to control,[1],112±2 % of control
"CACNB1 siRNA: siRNA, sense GGAGAAGUACAAUAAUGACTT (SEQ ID NO:15), antisense GUCAUUAUUGUACUUCUCCTT (SEQ ID NO:16) (chemistry not given here)",total neurite outgrowth compared to control,cortical neurons,essentially unchanged
same,percent neuronal survival compared to control,[1],80±3 % of control
"CO[C@H]1C[C@@H]2CC[C@@H](C)[C@@](O)(O2)C(=O)C(=O)N2CCCC[C@H]2C(=O)O[C@H]([C@H](C)C[C@@H]2CC[C@@H](O)[C@H](OC)C2)CC(=O)[C@H](C)/C=C(\C)[C@@H](O)[C@@H](OC)C(=O)[C@H](C)C[C@H](C)/C=C/C=C/C=C/1C [Rapamycin, reference compound]",Kd,His6-tagged FKBP52,1.4 ± 0.1 nM
same,IC50,Human CD4+ T cells,5 nM
"C=CC[C@@H]1/C=C(\C)C[C@H](C)C[C@H](OC)[C@H]2O[C@@](O)(C(=O)C(=O)N3CCCC[C@H]3C(=O)O[C@H](/C(C)=C/[C@@H]3CC[C@@H](O)[C@H](OC)C3)[C@H](C)[C@@H](O)CC1=O)[C@H](C)C[C@@H]2OC [FK506, reference compound]",Ca2+ current density,[2],2.9+/−0.1 pA/pF
same,decrease of Ca2+ current density vs vehicle,[2],55%
"CCC(C)(C)C(=O)C(=O)N1CCC[C@H]1C(=O)OCCCc1cccnc1 [GPI-1046, reference compound]",Kd,His6-tagged FKBP52,> 12 nM
same,Kd,His6-tagged FKBP12,> 110 nM
